Measurements published in the NIST ThermoML archive (doi:10.1021/je049824c).

What was measured:
[1] = excess molar enthalpy (molar enthalpy of mixing); xn = mol fraction of the nth substance listed; conditions: 14100 kPa, Liquid, Flow calorimetry
[2] = Liquid, Closed cell (Static) method

COC(=O)C(C)O (stereo not drawn) [methyl 2-hydroxypropanoate] + O
excess molar enthalpy [kcal/mol], [1]
Conditions	303.15 K	333.15 K
x2 = 0.0632	0.004	-0.00394
x2 = 0.1202	0.00357	-0.00928
x2 = 0.219	-0.000437	-0.0211
x2 = 0.3016	-0.00462	-0.0288
x2 = 0.3718	-0.00866	-0.0345
x2 = 0.4321	-0.0134	-0.0398
x2 = 0.5083	-0.0221	-0.0479
x2 = 0.5711	-0.0295	-0.0552
x2 = 0.6397	-0.0384	-0.0643
x2 = 0.7195	-0.0493	-0.0756
x2 = 0.7803	-0.0572	-0.0839
x2 = 0.8419	-0.0642	-0.0901
x2 = 0.8988	-0.0647	-0.0891
x2 = 0.9411	-0.0552	-0.0767
x2 = 0.9796	-0.0288	-0.0394

COC(=O)C(C)O (stereo not drawn) [methyl 2-hydroxypropanoate]
[2]
Conditions	vapor or sublimation pressure [kPa]
283.15 K	0.17
293.15 K	0.43
303.15 K	0.87
